Laboratory results published in patent publication US9315483B2, “Synthesis of deuterated catechols and benzo[D][1,3]dioxoles and derivatives thereof” (Concert Pharmaceuticals, Inc., priority 2007, dated 2016).

Key:
CYP2D6 = CYP2D6 (Homo sapiens, UniProt P10635); assay: in vitro
Protocol: Method: This study was conducted according to the procedure established by Bertelsen et al for paroxetine. See Bertelsen K M, Venkatakrishnan K, von Moltke L L, Obach S, Greenblatt, D J. Apparent mechanism-based inhibition of human CYP2D6 in vitro by paroxetine: comparison with fluoxetine and quinidine. Drug Met Disp 2003; 31:289-293. Briefly, the test articles were pre-incubated with human liver microsomes for various times followed by the addition of dextromethorphan, a CYP2D6 substrate. The formation of dextrorphan, a CYP2D6-specific metabolite of dextromethorphan, was monitored as a measure of CYP2D6 activity.

in vitro [1] = assay: in vitro
Protocol: (§1) Method: Test Compound A was evaluated at a concentration of 1 μM for apparent metabolic stability by the in vitro t1/2 method described by Obach et al. See Obach R S, Baxter J G, Liston T E, Silber B M, Jones B C, MacIntyre F, et al. The prediction of human pharmacokinetic parameters from preclinical and in vitro metabolism data. JPET 1997; 283:46-58.

in vitro [2] = assay: in vitro; remark: listed apart in the source
Protocol: as §1

[3] = biological target: human cDNA-expressed CYP2D6 (Homo sapiens, UniProt P10635); assay: Drug-drug interaction potential with tamoxifen: formation of endoxifen from N-desmethyl TAM after pre-incubation with CYP2D6
Description: Objective: The objective of this study was to determine the potential for the deuterated paroxetine, (3S,4R)-3-((2,2-d2-benzo[d][1,3]dioxol-5-yloxy)methyl)-4-(4-fluorophenyl)piperidine, HCl salt-hemihydrate, to inhibit the formation of endoxifen using human cDNA-expressed CYP2D6 as compared with paroxetine. The deuterated paroxetine, (3S,4R)-3-((2,2-d2-benzo[d][1,3]dioxol-5-yloxy)methyl)-4-(4-fluorophenyl)piperidine, HCl salt-hemihydrate, will be referred to as “Test Compound A” in the following examples and the figures.
Method: Test Compound A was pre-incubated for 20 min at various concentrations with human cDNA-expressed CYP2D6 (500 pmol/mL) in the presence of NADPH, after which aliquots of the reaction mixture were diluted 1:10 in buffer containing NADPH. N-desmethyl TAM (50 μM) was then added to the diluted pre-incubation mixtures. After 45 min of incubation, endoxifen concentrations were determined by LC-MS/MS.

[4] = for vasomotor symptoms (VMS); expected

Sequence of CYP2D6 (P10635 whole entry): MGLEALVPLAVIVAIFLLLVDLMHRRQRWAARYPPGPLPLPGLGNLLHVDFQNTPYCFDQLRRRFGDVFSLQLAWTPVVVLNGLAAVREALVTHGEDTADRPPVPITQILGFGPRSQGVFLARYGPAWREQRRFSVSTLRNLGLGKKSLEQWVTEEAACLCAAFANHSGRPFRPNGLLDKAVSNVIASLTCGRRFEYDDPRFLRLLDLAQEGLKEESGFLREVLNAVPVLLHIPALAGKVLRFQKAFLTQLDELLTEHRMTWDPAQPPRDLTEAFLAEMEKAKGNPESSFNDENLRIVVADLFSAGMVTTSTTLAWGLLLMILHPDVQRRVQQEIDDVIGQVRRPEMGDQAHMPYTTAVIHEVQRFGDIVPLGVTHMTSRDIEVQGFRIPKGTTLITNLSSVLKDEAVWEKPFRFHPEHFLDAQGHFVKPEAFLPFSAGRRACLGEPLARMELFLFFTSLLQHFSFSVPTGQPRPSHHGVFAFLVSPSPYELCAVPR
Sequence of human cDNA-expressed CYP2D6 (P10635 whole entry): as above

Structure (SMILES) | KI (inactivation) (CYP2D6; human, microsomes) [nM] | kinact (CYP2D6; human, microsomes) [s⁻¹] | inhibition of CYP2D6, expressed as the percentage of dextrorphan formation relative to control (CYP2D6; microsomes) | half-life at 1 μM (in vitro [1]; rat, microsomes) [min] | half-life at 1 μM (in vitro [2]; human, microsomes) [min] | endoxifen produced in the presence of Test Compound A relative to in the presence of paroxetine ([3]; highest concentration (25 μM)) [fold] | change in the formation of endoxifen from N-desmethyl tamoxifen ([3]; over the range of concentrations tested (0-25 μM), 20 min pre-incubation with NADPH, N-desmethyl TAM 50 μM, 45 min) | CYP2D6 activity (percentage of dextrorphan formation relative to control) (CYP2D6; 0-10 μM concentration range) | inhibition of CYP2D6 (CYP2D6; as the concentration approached 25 μM) | mechanism-based inactivation of CYP2D6 (CYP2D6; at concentrations up to 10 μM) | kINACT for CYP2D6 inactivation (CYP2D6; human liver microsomes) | t1/2 (in vitro [1]; Rat liver microsomes 0.5 mg/mL, 1 μM) [min] | mean relative amount remaining at the end of 30 minutes incubation (in vitro [1]; rat hepatic microsomes 0.5 mg/mL, 1 μM, n=4) [%] | t1/2 less than the corresponding value for paroxetine (in vitro [1]; rat liver microsomes) | t1/2 (in vitro [2]; Human liver microsomes 0.5 mg/mL, 1 μM) [min] | mean relative amount remaining at the end of 30 minutes incubation (in vitro [2]; human hepatic microsomes 0.5 mg/mL, 1 μM, n=4) [%] | t1/2 less than the corresponding value for paroxetine (in vitro [2]; human liver microsomes) [%] | maximum plasma concentration in humans [4] [nM]
Fc1ccc([C@@H]2CCNC[C@H]2COc2ccc3c(c2)OCO3)cc1 [Paroxetine, paroxetine, reference compound] | 1960 | 0.00133 | concentration- and time-dependent inhibition | 20.4 ± 2.1 | 49 ± 7.8 | – | – | – | – | – | – | – | – | – | – | – | – | –
Cl.Cl.O.[2H]C1([2H])Oc2ccc(OC[C@@H]3CNCC[C@H]3c3ccc(F)cc3)cc2O1.[2H]C1([2H])Oc2ccc(OC[C@@H]3CNCC[C@H]3c3ccc(F)cc3)cc2O1 [Test Compound A, (3S,4R)-3-((2,2-d2-benzo[d][1,3]dioxol-5-yloxy)methyl)-4-(4-fluorophenyl)piperidine, HCl salt-hemihydrate] | – | – | – | – | – | 12 | little to no change | remained similar to that of control | Some inhibition | does not exhibit mechanism-based inactivation | could not be calculated | 15.5 ± 1.6 | 25.5±4.3 | approximately 24% | 20.9 ± 2.0 | 37.2±3.9 | ~57 | ≤ 30
